Data: US11098294B2, “Anti-inflammatory peptides and composition comprising same” (GemVax & KAEL Co., Ltd., priority 2012, dated 2021)

Columns and labels:
Format in all cases: cell-based
[1] = system: COX-2; test: Western blot, COX-2 expression inhibition, LPS-stimulated cells
Description: (§1) Raw 264.7 macrophage cell (KCBL, 40071) from Korea Cell Bank was maintained in Dulbecco's modified Eagle's medium (DMEM; PAA, Austria) containing 10% fetal bovine serum (FBS; Gibco Laboratories), 100 unit/mL of streptomycin, and penicillin (Gibco Laboratories) at 37° C. with 5% CO2. Raw264.7 cells were seeded into a 96-well plate at a density of 1×10^6 cells/mL and incubated overnight.
(§2) On the following day, the medium was replaced with fresh medium and 5 μg/mL of peptide (obtained as described in Experiment example 1) was added to the cells. After 30 min incubation of cells with the peptide 50 μL of LPS (to a final concentration of 1 μg/mL) was added, and cells were incubated for additional 24 hr. The experimental sample with the induction of inflammatory response was treated with 1 μg/mL mL lipopolysaccharide (LPS; Sigma, USA) and control sample was treated with phosphate buffered saline (PBS; pH 7.2). The supernatant samples from each condition was collected in eppendorf tubes and subjected to further analysis.
(§3) Protein expression level was determined by Western blot analysis. […] The membrane was incubated with ECL (enhanced chemiluminesence) solution (Amersham Life Science Corp., Arlington Heights, Ill., USA), exposed to X-ray, and the level of protein expression was analyzed according to the exposure level shown on the X-ray film.

[2] = system: HMGB1; test: Western blot, HMGB1 expression inhibition, LPS-stimulated cells
Description: as §1, §2, §3

[3] = system: TNF-α; test: Western blot, TNF-α expression inhibition, LPS-stimulated cells
Description: as §1, §2, §3

[4] = system: IL-6; test: IL-6 secretion measurement (ELISA) in LPS-challenged RAW 264.7 cells; conditions: RAW 264.7 cell, LPS 1 μg/mL, PEP 1 5 μg/ml, 24 hr
Description: as §1, §2
To investigate the effect of PEP1 on inhibiting pro-inflammatory cytokine production RAW 264.7 cell were pre-treated with PEP 1 at a concentration of 5 μg/mL challenged with LPS at a concentration of 1 μg/mL, and cells were further incubated for 24 hr. The supernatant samples containing cell culture medium was collected and analyzed for the cytokine levels using ELISA kits (eBioscience, San Diego).
96 wells plates were coated with 100 μl of capture antibodies (diluted in coating buffer to the concentration recommended by manufacturer's protocol) overnight at 4° C. Then, after washing the plates 5 times, 200 μL of assay diluents was added to each well and incubated for 1 hr at room temperature for blocking. […]
Following incubation with the secondary antibody, the plate was washed five times and incubated with 100 μl of avidin-HRP (BD Bioscience) for 30 min at room temperature. […] The reaction was stopped by adding 50 μl of 2N H2SO4 in each well The optical density at 450 nm was measured using a microplate reader. […]

[5] = system: nitric oxide (NO); test: NO level analysis (Griess reagent) in LPS-stimulated Raw 264.7 cells; conditions: Raw 264.7 cell, LPS 1 μg/mL, PEP 1 0.5 μg/mL
Description: as §1
as §2, with “On the following day, the medium was replaced with fresh medium and 5 μg/mL of peptide (obtained as described in Experiment example 1) was added to the cells.” left out
The level of nitric oxide (NO) was measured in Raw 264.7 cell (1×10^6 cell/ml) using Griess reagent system (Promega, USA). Culture medium of 50 μl was added to a 96-well plate and Griess reagent I […] are added in the same amount. After 10 min incubation of cells with the reagents, the optical density at 540 nm was measured within 30 min using a microplate reader (Molecular Devices, USA). The concentration of NO was calculated by using a standard curve (0˜100 μM) of sodium nitrite.

[6] = cells treated with both LPS and Pep1

With EARPALLTSRLRFIPK [PEP 1] the “Cytokine Expression Level (band intensity) % of control COX-2” value ([1]; LPS 1 μg/ml, PEP 1 5 μg/ml) was 22%, the “decrease of pro-inflammatory cytokine level (COX)” value [1, 6] was “more than 70%” and the “Cytokine Expression Level (band intensity) % of control HMGB1” value ([2]; LPS 1 μg/ml, PEP 1 5 μg/ml) was 30%. For the same sequence, the “decrease of pro-inflammatory cytokine level (HMGB1)” value [2, 6] was “more than 70%”, the “Cytokine Expression Level (band intensity) % of control TNF-α” value ([3]; LPS 1 μg/ml, PEP 1 5 μg/ml) was 25% and the “decrease of pro-inflammatory cytokine level (TNF-α)” value [3, 6] was “more than 70%”. The “cytokine IL-6 production % of control” value [4] was 28%, the “cytokine IL-6 production inhibition %” value [4] was 72% and the “cytokine IL-6 production inhibition %” value ([4]; listed as PEP-1) was “more than 70%”. For the same sequence, the “Decreased NO Expression Level (%)” value [5] was 65%, the “NO Expression Level of control (%)” value [5] was 35% and the “NO Expression Level of control (%)” value ([5]; listed as Pep1) was 65%.
